Experimental data as given in patent US10709709B2, “Substituted carbonucleoside derivatives useful as anticancer agents” (Pfizer Inc., priority 2016, dated 2020).

These molecules were tested against PRMT5/MEP50 protein complex (Homo sapiens (Human), UniProt O14744) (assay: PRMT5 biochemical assay (3H-SAM methylation of H4(1-21) peptide, filter plate scintillation)). Conditions: 10 nM PRMT5/MEP50 complex, 200 nM H4(1-21) peptide, 1 uM SAM, 25 minute incubation at room temperature.
In short: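 Human PRMT5/MEP50 complex (10 nM) methylating H4(1-21) peptide (200 nM) with 3H/unlabelled SAM (1 uM final) in pH 8.5 Tris buffer, 25 min at room temperature. Stopped with TCA, 3H-peptide captured on filter plates and scintillation-counted. IC50 from 4-parameter fit.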

Sequence of PRMT5/MEP50 protein complex (O14744 other isoform, or with tags, fused parts or gaps): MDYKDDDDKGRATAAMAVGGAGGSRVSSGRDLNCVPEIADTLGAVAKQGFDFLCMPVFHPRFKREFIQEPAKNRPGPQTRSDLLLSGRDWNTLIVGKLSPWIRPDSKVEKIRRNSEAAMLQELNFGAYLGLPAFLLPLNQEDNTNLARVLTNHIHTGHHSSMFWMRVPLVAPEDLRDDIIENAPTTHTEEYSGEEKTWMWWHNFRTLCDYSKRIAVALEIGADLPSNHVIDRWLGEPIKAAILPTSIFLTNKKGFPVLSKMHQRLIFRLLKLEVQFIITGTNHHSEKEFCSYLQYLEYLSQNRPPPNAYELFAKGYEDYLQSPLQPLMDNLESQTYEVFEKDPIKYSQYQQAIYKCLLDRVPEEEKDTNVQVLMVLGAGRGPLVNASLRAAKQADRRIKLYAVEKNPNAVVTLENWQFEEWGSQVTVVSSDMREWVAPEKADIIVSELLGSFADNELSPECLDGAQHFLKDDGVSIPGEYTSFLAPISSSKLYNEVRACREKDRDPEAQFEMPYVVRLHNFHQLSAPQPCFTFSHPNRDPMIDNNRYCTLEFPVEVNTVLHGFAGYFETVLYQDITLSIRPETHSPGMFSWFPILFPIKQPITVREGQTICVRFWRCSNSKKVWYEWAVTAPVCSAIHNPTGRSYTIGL
Sequence of PRMT5/MEP50 protein complex (Q9BQA1 whole entry partner): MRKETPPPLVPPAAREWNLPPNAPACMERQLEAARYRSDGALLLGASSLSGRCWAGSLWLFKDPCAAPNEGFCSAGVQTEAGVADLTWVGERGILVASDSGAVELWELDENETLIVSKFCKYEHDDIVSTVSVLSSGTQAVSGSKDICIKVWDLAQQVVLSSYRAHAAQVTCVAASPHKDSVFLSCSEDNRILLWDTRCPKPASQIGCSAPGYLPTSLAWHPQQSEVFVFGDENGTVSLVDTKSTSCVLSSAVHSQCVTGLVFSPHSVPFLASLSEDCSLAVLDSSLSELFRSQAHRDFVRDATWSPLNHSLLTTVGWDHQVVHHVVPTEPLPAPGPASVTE

Row | IC50 [nM] | Compound
1 | 9 | Cc1cc2c(c(O[C@H]3C[C@@H](n4cc(F)c5cnc(C)nc54)[C@H](O)[C@@H]3O)c1)CNCC2 [Example 127, (1S,2S,3R,5S)-3-(5-fluoro-2-methyl-7H-pyrrolo[2,3-d]pyrimidin-7-yl)-5-((6-methyl-1,2,3,4-tetrahydroisoquinolin-8-yl)oxy)cyclopentane-1,2-diol]
2 | 10200 | Cc1ncnc2c1ccn2[C@@H]1C[C@H](Oc2ccc(F)cc2CO)[C@@H](O)[C@H]1O [Example 135, (1S,2S,3S,5R)-3-(4-fluoro-2-(hydroxymethyl)phenoxy)-5-(4-methyl-7H-pyrrolo[2,3-d]pyrimidin-7-yl)cyclopentane-1,2-diol]
3 | 11100 | Cc1ncnc2c1ccn2[C@@H]1C[C@H](Oc2ccc(F)cc2O)[C@@H](O)[C@H]1O [Example 136, (1S,2S,3S,5R)-3-(4-fluoro-2-hydroxyphenoxy)-5-(4-methyl-7H-pyrrolo[2,3-d]pyrimidin-7-yl)cyclopentane-1,2-diol]
4 | 11 | Cc1ncnc2c1ccn2[C@@H]1C[C@H](Oc2ccc(F)c(F)c2CN)[C@@H](O)[C@H]1O [Example 145, (1S,2S,3S,5R)-3-(2-(aminomethyl)-3,4-difluorophenoxy)-5-(4-methyl-7H-pyrrolo[2,3-d]pyrimidin-7-yl)cyclopentane-1,2-diol]
5 | 71 | Cc1ncnc2c1ccn2[C@@H]1C[C@H](Oc2ccc(Cl)c(Cl)c2CN)[C@@H](O)[C@H]1O [Example 150, (1S,2S,3S,5R)-3-(2-(aminomethyl)-3,4-dichlorophenoxy)-5-(4-methyl-7H-pyrrolo[2,3-d]pyrimidin-7-yl)cyclopentane-1,2-diol]
6 | 2 | Cc1cc(O[C@H]2C[C@@H](n3ccc4c(C)ncnc43)[C@H](O)[C@@H]2O)c2c(c1F)CCNC2 [Example 155, (1S,2S,3S,5R)-3-((5-fluoro-6-methyl-1,2,3,4-tetrahydroisoquinolin-8-yl)oxy)-5-(4-methyl-7H-pyrrolo[2,3-d]pyrimidin-7-yl)cyclopentane-1,2-diol]
7 | 107 | Cc1ncnc2c1ccn2[C@@H]1C[C@H](Oc2ncnc3c2CNCC3)[C@@H](O)[C@H]1O [Example 156, (1S,2S,3R,5S)-3-(4-methyl-7H-pyrrolo[2,3-d]pyrimidin-7-yl)-5-((5,6,7,8-tetrahydropyrido[4,3-d]pyrimidin-4-yl)oxy)cyclopentane-1,2-diol]
8 | > 200000 | Cc1ncnc2c1ccn2[C@@H]1C[C@H](Oc2cccc3c2C(=O)NCCO3)[C@@H](O)[C@H]1O [Example 163, 6-(((1S,2S,3S,4R)-2,3-dihydroxy-4-(4-methyl-7H-pyrrolo[2,3-d]pyrimidin-7-yl)cyclopentyl)oxy)-3,4-dihydrobenzo[f][1,4]oxazepin-5(2H)-one]
9 | 14 | Cc1ncnc2c1ccn2[C@@H]1C[C@H](Oc2cc(-c3cc[nH]n3)cc3c2CNCC3)[C@@H](O)[C@H]1O [Example 171, (1S,2S,3S,5R)-3-((6-(1H-pyrazol-3-yl)-1,2,3,4-tetrahydroisoquinolin-8-yl)oxy)-5-(4-methyl-7H-pyrrolo[2,3-d]pyrimidin-7-yl)cyclopentane-1,2-diol]
10 | 1 | Cc1cn([C@@H]2C[C@H](Oc3cc(F)c(F)c4c3CNCC4)[C@@H](O)[C@H]2O)c2ncnc(N)c12 [Example 179, (1S,2S,3R,5S)-3-(4-amino-5-methyl-7H-pyrrolo[2,3-d]pyrimidin-7-yl)-5-((5,6-difluoro-1,2,3,4-tetrahydroisoquinolin-8-yl)oxy)cyclopentane-1,2-diol]
11 | 1 | Cc1ncnc2c1ccn2[C@@H]1C[C@H](Oc2cc(C(F)F)c(F)c3c2CNCC3)[C@@H](O)[C@H]1O [Example 190, (1S,2S,3S,5R)-3-((6-(difluoromethyl)-5-fluoro-1,2,3,4-tetrahydroisoquinolin-8-yl)oxy)-5-(4-methyl-7H-pyrrolo[2,3-d]pyrimidin-7-yl)cyclopentane-1,2-diol]
12 | 55 | CCOc1nc(O[C@H]2C[C@@H](n3ccc4c(C)ncnc43)[C@H](O)[C@@H]2O)c2c(c1F)CCNC2 [Example 192, (1S,2S,3S,5R)-3-((3-ethoxy-4-fluoro-5,6,7,8-tetrahydro-2,7-naphthyridin-1-yl)oxy)-5-(4-methyl-7H-pyrrolo[2,3-d]pyrimidin-7-yl)cyclopentane-1,2-diol]

More lines, now with the values behind:

Row | Compound | IC50 [nM]
13 | CN1CCc2c(cccc2O[C@H]2C[C@@H](n3cc(F)c4c(N)ncnc43)[C@H](O)[C@@H]2O)C1 [Example 116, (1S,2S,3R,5S)-3-(4-amino-5-fluoro-7H-pyrrolo[2,3-d]pyrimidin-7-yl)-5-((2-methyl-1,2,3,4-tetrahydroisoquinolin-5-yl)oxy)cyclopentane-1,2-diol] | 257
14 | Cc1ncnc2c1ccn2[C@@H]1C[C@H](Oc2ccc(F)cc2[C@@H](C)N)[C@@H](O)[C@H]1O [Example 137, (1S,2S,3S,5R)-3-(2-((R)-1-aminoethyl)-4-fluorophenoxy)-5-(4-methyl-7H-pyrrolo[2,3-d]pyrimidin-7-yl)cyclopentane-1,2-diol] | 123
15 | Cc1ncnc2c1ccn2[C@@H]1C[C@H](Oc2cccc3c2[C@@H](N)CC3)[C@@H](O)[C@H]1O [Example 141, (1S,2S,3S,5R)-3-(((S)-3-amino-2,3-dihydro-1H-inden-4-yl)oxy)-5-(4-methyl-7H-pyrrolo[2,3-d]pyrimidin-7-yl)cyclopentane-1,2-diol] | 3930
16 | Cc1ncnc2c1ccn2[C@@H]1C[C@H](Oc2cccc3c2[C@H](N)CC3)[C@@H](O)[C@H]1O [Example 142, (1S,2S,3S,5R)-3-(((R)-3-amino-2,3-dihydro-1H-inden-4-yl)oxy)-5-(4-methyl-7H-pyrrolo[2,3-d]pyrimidin-7-yl)cyclopentane-1,2-diol] | 11
17 | Cc1ncnc2c1ccn2[C@@H]1C[C@H](Oc2cccc(C(F)(F)F)c2CN)[C@@H](O)[C@H]1O [Example 144, (1S,2S,3S,5R)-3-(2-(aminomethyl)-3-(trifluoromethyl)phenoxy)-5-(4-methyl-7H-pyrrolo[2,3-d]pyrimidin-7-yl)cyclopentane-1,2-diol] | 77
18 | Cc1ncnc2c1ccn2[C@@H]1C[C@H](Oc2cc(Cl)c(Cl)cc2CN)[C@@H](O)[C@H]1O [Example 147, (1S,2S,3S,5R)-3-(2-(aminomethyl)-4,5-dichlorophenoxy)-5-(4-methyl-7H-pyrrolo[2,3-d]pyrimidin-7-yl)cyclopentane-1,2-diol] | 24
19 | Cc1ncnc2c1ccn2[C@@H]1C[C@H](Oc2ccc(Cl)cc2C(O)CN)[C@@H](O)[C@H]1O (stereo partly drawn) [Example 149, (1S,2S,3S,5R)-3-(2-(2-amino-1-hydroxyethyl)-4-chlorophenoxy)-5-(4-methyl-7H-pyrrolo[2,3-d]pyrimidin-7-yl)cyclopentane-1,2-diol] | 69
20 | Cc1ncnc2c1ccn2[C@@H]1C[C@H](Oc2cc(Cl)c(Cl)cc2OCCN)[C@@H](O)[C@H]1O [Example 151, (1S,2S,3S,5R)-3-(2-(2-aminoethoxy)-4,5-dichlorophenoxy)-5-(4-methyl-7H-pyrrolo[2,3-d]pyrimidin-7-yl)cyclopentane-1,2-diol] | 78
21 | Cc1ncnc2c1ccn2[C@@H]1C[C@H](Oc2cc(F)c(F)cc2OCCN)[C@@H](O)[C@H]1O [Example 152, (1S,2S,3S,5R)-3-(2-(2-aminoethoxy)-4,5-difluorophenoxy)-5-(4-methyl-7H-pyrrolo[2,3-d]pyrimidin-7-yl)cyclopentane-1,2-diol] | 8
22 | Cc1ncnc2c1ccn2[C@@H]1C[C@H](Oc2ccc(Cl)cc2OCCN)[C@@H](O)[C@H]1O [Example 153, (1S,2S,3S,5R)-3-(2-(2-aminoethoxy)-4-chlorophenoxy)-5-(4-methyl-7H-pyrrolo[2,3-d]pyrimidin-7-yl)cyclopentane-1,2-diol] | 5
23 | Cc1ncnc2c1ccn2[C@@H]1C[C@H](Oc2nccc3c2CNCC3)[C@@H](O)[C@H]1O [Example 157, (1S,2S,3R,5S)-3-(4-methyl-7H-pyrrolo[2,3-d]pyrimidin-7-yl)-5-((5,6,7,8-tetrahydro-2,7-naphthyridin-1-yl)oxy)cyclopentane-1,2-diol] | 4
24 | Cc1nccc(O[C@@H]2C[C@H](Oc3cccc4c3CNCC4)[C@@H](O)[C@H]2O)n1 [Example 158, (1S,2R,3R,5S)-3-((2-methylpyrimidin-4-yl)oxy)-5-((1,2,3,4-tetrahydroisoquinolin-8-yl)oxy)cyclopentane-1,2-diol] | > 200000
25 | Cc1ncnc2c1ccn2[C@@H]1C[C@H]([C@@H](O)c2ccc(Cl)c(F)c2)[C@@H](O)[C@H]1O [Example 161, (1S,2R,3R,5R)-3-((R)-(4-chloro-3-fluorophenyl)(hydroxy)methyl)-5-(4-methyl-7H-pyrrolo[2,3-d]pyrimidin-7-yl)cyclopentane-1,2-diol] | 201
26 | Nc1ncnc2c1c(F)cn2[C@@H]1C[C@H](Oc2cccc3ccncc23)[C@@H](O)[C@H]1O [Example 162] | 42
27 | Cc1ncnc2c1ccn2[C@@H]1C[C@H](Oc2cc(-c3cnco3)cc3c2CNCC3)[C@@H](O)[C@H]1O [Example 170, (1S,2S,3R,5S)-3-(4-methyl-7H-pyrrolo[2,3-d]pyrimidin-7-yl)-5-((6-(oxazol-5-yl)-1,2,3,4-tetrahydroisoquinolin-8-yl)oxy)cyclopentane-1,2-diol] | 1
28 | Cc1ncnc2c1ccn2[C@@H]1C[C@H](Oc2cccc3ccncc23)[C@@H](O)[C@H]1O [Example 172, (1S,2S,3S,5R)-3-(isoquinolin-8-yloxy)-5-(4-methyl-7H-pyrrolo[2,3-d]pyrimidin-7-yl)cyclopentane-1,2-diol] | 1280
29 | Cc1ncnc2c1ccn2[C@@H]1C[C@H](Oc2nc(OC(C)C)c(F)c3c2CNCC3)[C@@H](O)[C@H]1O [Example 193, (1S,2S,3S,5R)-3-((4-fluoro-3-isopropoxy-5,6,7,8-tetrahydro-2,7-naphthyridin-1-yl)oxy)-5-(4-methyl-7H-pyrrolo[2,3-d]pyrimidin-7-yl)cyclopentane-1,2-diol] | 180
